According to PMC5218480 (PLoS ONE, 2017):

System: MV-4-11 cells
Experiment: Gene expression microarray analysis (Affymetrix PrimeView) and GSEA
Assay type: cell-based, human
Design: RFU PODN (11730768_x_at) / Fold change /veh PODN (11730768_x_at) / RFU LINC00158 (11744669_a_at) / Fold change /veh LINC00158 (11744669_a_at) / RFU DUSP10 (11751237_a_at) / Fold change /veh DUSP10 (11751237_a_at) / RFU ID3 (11757404_x_at) / Fold change /veh ID3 (11757404_x_at) / RFU PLEKHG5 (11737974_s_at) / Fold change /veh PLEKHG5 (11737974_s_at) / RFU LRRC4B (11730491_at) / Fold change /veh LRRC4B (11730491_at) / RFU GIMAP4 (11747438_a_at) / Fold change /veh GIMAP4 (11747438_a_at) / RFU KRT8 (11758183_x_at) / Fold change /veh KRT8 (11758183_x_at) / RFU CNN1 (11734310_a_at) / Fold change /veh CNN1 (11734310_a_at) / RFU VPS37D (11726825_at) / Fold change /veh VPS37D (11726825_at) / RFU C10orf10 (11716522_x_at) / Fold change /veh C10orf10 (11716522_x_at) / RFU KIR2DL2 /// KIR2DL4 /// KIR2DL5A /// KIR2DL5B /// KIR2DS1 /// KIR2DS2 /// KIR2DS3 /// KIR2DS4 /// KIR3DL3 /// KIR3DL3 /// KIR3DS1 (11738374_at) / Fold change /veh KIR2DL2 /// KIR2DL4 /// KIR2DL5A /// KIR2DL5B /// KIR2DS1 /// KIR2DS2 /// KIR2DS3 /// KIR2DS4 /// KIR3DL3 /// KIR3DL3 /// KIR3DS1 (11738374_at) / RFU C1QL1 (11718748_at) / Fold change /veh C1QL1 (11718748_at) / RFU TMPRSS4 (11747572_a_at) / Fold change /veh TMPRSS4 (11747572_a_at) / RFU HAMP (11756126_x_at) / Fold change /veh HAMP (11756126_x_at) / RFU RNFT2 (11725882_a_at) / Fold change /veh RNFT2 (11725882_a_at) / RFU NR4A2 (11747474_a_at) / Fold change /veh NR4A2 (11747474_a_at) / RFU ABCC12 (11746883_a_at) / Fold change /veh ABCC12 (11746883_a_at) / RFU TMEM136 (11760407_x_at) / Fold change /veh TMEM136 (11760407_x_at) / RFU CLDN22 /// WWC2 (11732394_at) / Fold change /veh CLDN22 /// WWC2 (11732394_at) / RFU HLA-DPB1 (11760878_x_at) / Fold change /veh HLA-DPB1 (11760878_x_at) / RFU SPINT1 (11716480_a_at) / Fold change /veh SPINT1 (11716480_a_at) / RFU GAP43 (11754022_s_at) / Fold change /veh GAP43 (11754022_s_at) / RFU A4GNT (11735810_at) / Fold change /veh A4GNT (11735810_at) / RFU PRB3 (11715151_x_at) / Fold change /veh PRB3 (11715151_x_at) / RFU TUBB4B (11761932_at) / Fold change /veh TUBB4B (11761932_at) / RFU CAPN14 (11732068_a_at) / Fold change /veh CAPN14 (11732068_a_at) / RFU TMCC2 (11721928_a_at) / Fold change /veh TMCC2 (11721928_a_at) / RFU IRGQ (11745062_a_at) / Fold change /veh IRGQ (11745062_a_at) / RFU FAM174B (11720279_a_at) / Fold change /veh FAM174B (11720279_a_at) / RFU TMPRSS4 (11748680_a_at) / Fold change /veh TMPRSS4 (11748680_a_at) / RFU FAM212B (11763350_a_at) / Fold change /veh FAM212B (11763350_a_at) / RFU PLEKHG5 (11743358_a_at) / Fold change /veh PLEKHG5 (11743358_a_at) / RFU ZSCAN30 (11745921_a_at) / Fold change /veh ZSCAN30 (11745921_a_at) / RFU CMKLR1 (11741424_a_at) / Fold change /veh CMKLR1 (11741424_a_at) / RFU LOC101060620 /// MAPK8IP1 (11723275_at) / Fold change /veh LOC101060620 /// MAPK8IP1 (11723275_at) / RFU SPTSSB (11747773_x_at) / Fold change /veh SPTSSB (11747773_x_at) / RFU PRSS12 (11739890_at) / Fold change /veh PRSS12 (11739890_at) / RFU BIN1 (11741810_x_at) / Fold change /veh BIN1 (11741810_x_at) / RFU WNT11 (11732464_a_at) / Fold change /veh WNT11 (11732464_a_at) / RFU C10orf10 (11716521_a_at) / Fold change /veh C10orf10 (11716521_a_at) / RFU C5orf56 (11738089_at) / Fold change /veh C5orf56 (11738089_at) / RFU CYB561 (11721691_x_at) / Fold change /veh CYB561 (11721691_x_at) / RFU ANKRD19P (11752326_a_at) / Fold change /veh ANKRD19P (11752326_a_at) / RFU OR2T12 /// OR2T33 /// OR2T8 (11738714_s_at) / Fold change /veh OR2T12 /// OR2T33 /// OR2T8 (11738714_s_at) / RFU VCAN (11748164_a_at) / Fold change /veh VCAN (11748164_a_at) / RFU JSRP1 (11732532_at) / Fold change /veh JSRP1 (11732532_at) / RFU KRTAP10-11 (11738290_x_at) / Fold change /veh KRTAP10-11 (11738290_x_at) / RFU MYO3A (11730013_a_at) / Fold change /veh MYO3A (11730013_a_at) / RFU EBF3 (11725865_a_at) / Fold change /veh EBF3 (11725865_a_at) / RFU CAMK2N1 (11719241_x_at) / Fold change /veh CAMK2N1 (11719241_x_at) / RFU C5orf56 (11738088_a_at) / Fold change /veh C5orf56 (11738088_a_at) / RFU OLFML3 (11715873_a_at) / Fold change /veh OLFML3 (11715873_a_at) / RFU LOC100653217 /// NTM (11731650_a_at) / Fold change /veh LOC100653217 /// NTM (11731650_a_at) / RFU MAPK11 (11762145_a_at) / Fold change /veh MAPK11 (11762145_a_at) / RFU FIZ1 (11724087_x_at) / Fold change /veh FIZ1 (11724087_x_at) / RFU OASL (11726364_x_at) / Fold change /veh OASL (11726364_x_at) / RFU SOX15 (11748057_x_at) / Fold change /veh SOX15 (11748057_x_at) / RFU CD79A (11719716_a_at) / Fold change /veh CD79A (11719716_a_at) / RFU HIST1H1D (11736915_at) / Fold change /veh HIST1H1D (11736915_at) / RFU CASKIN2 (11723855_a_at) / Fold change /veh CASKIN2 (11723855_a_at) / RFU LOC730098 (11760151_x_at) / Fold change /veh LOC730098 (11760151_x_at) / RFU OR4N2 (11742367_at) / Fold change /veh OR4N2 (11742367_at) / RFU PRRT2 (11749266_a_at) / Fold change /veh PRRT2 (11749266_a_at) / RFU SNX32 (11753110_a_at) / Fold change /veh SNX32 (11753110_a_at) / RFU CDHR5 (11726645_a_at) / Fold change /veh CDHR5 (11726645_a_at) / RFU RCAN1 (11760418_a_at) / Fold change /veh RCAN1 (11760418_a_at) / RFU FAM167A (11723789_a_at) / Fold change /veh FAM167A (11723789_a_at) / RFU FAM26E (11764081_at) / Fold change /veh FAM26E (11764081_at) / RFU ISYNA1 (11749810_s_at) / Fold change /veh ISYNA1 (11749810_s_at) / RFU ACY1 (11761880_at) / Fold change /veh ACY1 (11761880_at) / RFU 11764098_at / Fold change /veh 11764098_at / RFU SAMD14 (11745864_x_at) / Fold change /veh SAMD14 (11745864_x_at) / RFU NPB (11741838_a_at) / Fold change /veh NPB (11741838_a_at) / RFU TMPRSS6 (11731388_a_at) / Fold change /veh TMPRSS6 (11731388_a_at) / RFU KRTAP10-2 (11738614_at) / Fold change /veh KRTAP10-2 (11738614_at) / RFU ARHGAP8 /// PRR5-ARHGAP8 (11727945_x_at) / Fold change /veh ARHGAP8 /// PRR5-ARHGAP8 (11727945_x_at) / RFU KRTAP5-7 /// NADSYN1 (11734609_at) / Fold change /veh KRTAP5-7 /// NADSYN1 (11734609_at) / RFU RASL12 (11751679_a_at) / Fold change /veh RASL12 (11751679_a_at) / RFU CDKN2B (11736163_a_at) / Fold change /veh CDKN2B (11736163_a_at) / RFU PRF1 (11729649_at) / Fold change /veh PRF1 (11729649_at) / RFU, ZNF638 /// ZNF638-IT1 / Fold change vs veh, ZNF638 /// ZNF638-IT1 / RFU, PANK3 / Fold change vs veh, PANK3 / RFU, SH3YL1 / Fold change vs veh, SH3YL1 / RFU, ZEB2 / Fold change vs veh, ZEB2 / RFU, NRIP1 / Fold change vs veh, NRIP1 / RFU, PTTG1IP / Fold change vs veh, PTTG1IP / RFU, CAPN2 / Fold change vs veh, CAPN2 / RFU, MED14 / Fold change vs veh, MED14 / RFU, SNORA58 / Fold change vs veh, SNORA58 / RFU, C1orf63 / Fold change vs veh, C1orf63 / RFU, LRRFIP1 / Fold change vs veh, LRRFIP1 / RFU, NDUFAF7 / Fold change vs veh, NDUFAF7 / RFU, SLC12A2 / Fold change vs veh, SLC12A2 / RFU, IBTK / Fold change vs veh, IBTK / RFU, ESF1 / Fold change vs veh, ESF1 / Fold change vs veh, TMEM50B / RFU, TAOK1 / Fold change vs veh, TAOK1 / RFU, ACBD3 / Fold change vs veh, ACBD3 / RFU, TMA16 / Fold change vs veh, TMA16 / RFU, RWDD3 / Fold change vs veh, RWDD3 / RFU, BCAT1 / Fold change vs veh, BCAT1 / RFU, EDEM3 / Fold change vs veh, EDEM3 / RFU, TMEM33 / Fold change vs veh, TMEM33 / RFU, WDR75 / Fold change vs veh, WDR75 / RFU, AHCTF1 / Fold change vs veh, AHCTF1 / RFU, TFRC / Fold change vs veh, TFRC / RFU, ZDHHC17 / Fold change vs veh, ZDHHC17 / RFU, NOM1 / Fold change vs veh, NOM1 / RFU, ARL8B / Fold change vs veh, ARL8B / RFU, ZBTB11 / Fold change vs veh, ZBTB11 / RFU, TAMM41 / Fold change vs veh, TAMM41 / RFU, KIAA1704 /// LOC100996395 / Fold change vs veh, KIAA1704 /// LOC100996395 / RFU, ING1 / Fold change vs veh, ING1 / RFU, TRMT61B / Fold change vs veh, TRMT61B / RFU, FUBP3 / Fold change vs veh, FUBP3 / RFU, TP53 / Fold change vs veh, TP53 / RFU, TNKS2 / Fold change vs veh, TNKS2 / RFU, ZFP14 / Fold change vs veh, ZFP14 / RFU, ACTR2 / Fold change vs veh, ACTR2 / RFU, PPP3R1 / Fold change vs veh, PPP3R1 / RFU, PIK3R1 / Fold change vs veh, PIK3R1 / RFU, HNRNPA1 / Fold change vs veh, HNRNPA1 / RFU, RNF170 / Fold change vs veh, RNF170 / RFU, ZNF28 / Fold change vs veh, ZNF28 / RFU, RNGTT / Fold change vs veh, RNGTT / RFU, OGT / Fold change vs veh, OGT / RFU, BRD1 / Fold change vs veh, BRD1 / RFU, MARS / Fold change vs veh, MARS / RFU, ZNF655 / Fold change vs veh, ZNF655 / RFU, FAHD1 / Fold change vs veh, FAHD1 / RFU, BDP1 / Fold change vs veh, BDP1 / RFU, LRRCC1 / Fold change vs veh, LRRCC1 / RFU, ARID1A / Fold change vs veh, ARID1A / RFU, ZNF146 / Fold change vs veh, ZNF146 / RFU, ZNF330 / Fold change vs veh, ZNF330 / RFU, GPN3 / Fold change vs veh, GPN3 / RFU, C9orf123 / Fold change vs veh, C9orf123 / RFU, N4BP2L2 / Fold change vs veh, N4BP2L2 / RFU, ARFIP1 / Fold change vs veh, ARFIP1 / RFU, FAM179B / Fold change vs veh, FAM179B / RFU, BCL10 / Fold change vs veh, BCL10 / RFU, UHRF1BP1L / Fold change vs veh, UHRF1BP1L / RFU, BET1 / Fold change vs veh, BET1 / RFU, CNOT2 / Fold change vs veh, CNOT2 / RFU, ZNF268 / Fold change vs veh, ZNF268 / Fold change vs veh, ZNF507 / RFU, DGCR2 / Fold change vs veh, DGCR2 / RFU, WDSUB1 / Fold change vs veh, WDSUB1 / Fold change vs veh, HSP90B1 /// MIR3652 / RFU, ADSS / Fold change vs veh, ADSS / RFU, GK / Fold change vs veh, GK / RFU, ZNF148 / Fold change vs veh, ZNF148 / RFU, TAF9 / Fold change vs veh, TAF9 / RFU, SLC1A5 / Fold change vs veh, SLC1A5 / RFU, SLMO2 / Fold change vs veh, SLMO2 / RFU, ABCC4 / Fold change vs veh, ABCC4 / RFU, LOC101060439 /// RAP1B / Fold change vs veh, LOC101060439 /// RAP1B / RFU, RFX7 / Fold change vs veh, RFX7 / RFU, GTPBP10 / Fold change vs veh, GTPBP10 / RFU, CNEP1R1 / Fold change vs veh, CNEP1R1 / RFU, BIVM-ERCC5 /// ERCC5 / Fold change vs veh, BIVM-ERCC5 /// ERCC5 / RFU, ILF3 / Fold change vs veh, ILF3 / RFU 11762660_at / Fold change /veh 11762660_at / RFU VCAN (11757783_s_at) / Fold change /veh VCAN (11757783_s_at) / RFU DDX43 (11728927_at) / Fold change /veh DDX43 (11728927_at) / RFU KRT8 (11758188_x_at) / Fold change /veh KRT8 (11758188_x_at) / RFU NKD1 (11759106_at) / Fold change /veh NKD1 (11759106_at) / RFU SRD5A1 (11742802_a_at) / Fold change /veh SRD5A1 (11742802_a_at) / RFU TPSAB1 /// TPSB2 (11721975_s_at) / Fold change /veh TPSAB1 /// TPSB2 (11721975_s_at) / RFU GSTM3 (11746129_a_at) / Fold change /veh GSTM3 (11746129_a_at) / RFU IL23R (11737362_x_at) / Fold change /veh IL23R (11737362_x_at) / RFU TMEM51 (11727254_a_at) / Fold change /veh TMEM51 (11727254_a_at) / RFU PIWIL2 (11732686_x_at) / Fold change /veh PIWIL2 (11732686_x_at) / RFU ORM1 (11744905_x_at) / Fold change /veh ORM1 (11744905_x_at) / RFU CCDC152 (11743942_at) / Fold change /veh CCDC152 (11743942_at) / RFU ECM1 (11717891_a_at) / Fold change /veh ECM1 (11717891_a_at) / RFU IL23R (11748794_a_at) / Fold change /veh IL23R (11748794_a_at) / RFU TNFAIP8L3 (11732012_x_at) / Fold change /veh TNFAIP8L3 (11732012_x_at) / RFU MBOAT4 (11741988_at) / Fold change /veh MBOAT4 (11741988_at) / RFU 11764193_at / Fold change /veh 11764193_at / RFU TMEM53 (11763286_at) / Fold change /veh TMEM53 (11763286_at) / RFU MAGEB2 (11727129_at) / Fold change /veh MAGEB2 (11727129_at) / RFU TMEM200A (11744735_a_at) / Fold change /veh TMEM200A (11744735_a_at) / RFU CCDC152 (11751479_a_at) / Fold change /veh CCDC152 (11751479_a_at) / RFU FAM211A (11726209_a_at) / Fold change /veh FAM211A (11726209_a_at) / RFU RGS16 (11746705_a_at) / Fold change /veh RGS16 (11746705_a_at) / RFU VCAN (11755009_s_at) / Fold change /veh VCAN (11755009_s_at) / RFU RHOB (11743442_s_at) / Fold change /veh RHOB (11743442_s_at) / RFU RGS16 (11720943_a_at) / Fold change /veh RGS16 (11720943_a_at) / RFU RGS16 (11720944_at) / Fold change /veh RGS16 (11720944_at) / RFU, VPS4B / Fold change vs veh, VPS4B / RFU, CREB1 / Fold change vs veh, CREB1 / RFU, DNAJC13 / Fold change vs veh, DNAJC13 / RFU, GNAQ / Fold change vs veh, GNAQ / RFU, CDK5R1 / Fold change vs veh, CDK5R1 / RFU, ZRANB3 / Fold change vs veh, ZRANB3 / RFU, CUL4A / Fold change vs veh, CUL4A / RFU, CCNY / Fold change vs veh, CCNY / RFU, UFL1 / Fold change vs veh, UFL1 / RFU, COG3 / Fold change vs veh, COG3 / RFU, DIAPH2 / Fold change vs veh, DIAPH2 / RFU, SKA2 / Fold change vs veh, SKA2 / RFU, AFF3 / Fold change vs veh, AFF3 / RFU, LMF1 / Fold change vs veh, LMF1 / RFU, IPO11 / Fold change vs veh, IPO11 / RFU, DFFB / Fold change vs veh, DFFB / RFU, FOXP1 / Fold change vs veh, FOXP1 / RFU, CARD8 / Fold change vs veh, CARD8 / RFU, STRN3 / Fold change vs veh, STRN3 / RFU, ADK / Fold change vs veh, ADK / RFU, RASSF2 / Fold change vs veh, RASSF2 / RFU, WIPF1 / Fold change vs veh, WIPF1 / RFU, LARP1B / Fold change vs veh, LARP1B / RFU, RASA1 / Fold change vs veh, RASA1 / RFU, RB1 / Fold change vs veh, RB1 / RFU, PPFIA1 / Fold change vs veh, PPFIA1 / RFU, MAT2A / Fold change vs veh, MAT2A / RFU, CCT5 / Fold change vs veh, CCT5 / RFU, WDR92 / Fold change vs veh, WDR92 / RFU, CUX1 / Fold change vs veh, CUX1 / RFU, TTC7A / Fold change vs veh, TTC7A / RFU, TMEM135 / Fold change vs veh, TMEM135 / RFU, DEPTOR / Fold change vs veh, DEPTOR / RFU, CPM / Fold change vs veh, CPM / RFU, DNAJB6 / Fold change vs veh, DNAJB6 / RFU, CACNA2D3 / Fold change vs veh, CACNA2D3 / RFU, DTX4 / Fold change vs veh, DTX4 / RFU, TFCP2 / Fold change vs veh, TFCP2 / RFU, GMCL1 /// GMCL1P1 / Fold change vs veh, GMCL1 /// GMCL1P1 / RFU, AEBP2 / Fold change vs veh, AEBP2 / RFU, SNHG1 /// SNORD22 /// SNORD25 /// SNORD26 /// SNORD27 /// SNORD28 /// SNORD29 /// SNORD31 / Fold change vs veh, SNHG1 /// SNORD22 /// SNORD25 /// SNORD26 /// SNORD27 /// SNORD28 /// SNORD29 /// SNORD31 / Fold change (Aza/veh), C12orf56 (ProbeSet 11735607_a_at) / Fold change (ACY-1035/veh), C12orf56 (ProbeSet 11735607_a_at) / Fold change (Aza/veh), FGFR1OP (ProbeSet 11751329_s_at) / Fold change (ACY-1035/veh), FGFR1OP (ProbeSet 11751329_s_at) / Fold change (Aza/veh), VPS36 (ProbeSet 11739960_a_at) / Fold change (ACY-1035/veh), VPS36 (ProbeSet 11739960_a_at) / RFU SYPL1 (11715823_x_at) / Fold change /veh SYPL1 (11715823_x_at) / RFU IGFBP7 (11715501_s_at) / Fold change /veh IGFBP7 (11715501_s_at) / RFU REEP3 (11722064_at) / Fold change /veh REEP3 (11722064_at) / RFU IGLL1 (11728026_x_at) / Fold change /veh IGLL1 (11728026_x_at): dose or concentration left out as unconfirmed
Conditions: ProbeSet 11718977_a_at; LIST B

In the case of `Nc1ccc(-c2cccs2)cc1NC(=O)c1ccc2c(c1)cc(C1CC1)n2CCN1CCOCC1` [ACY-1035], the “RFU, CAPN2” value is reported as 162.48 RFU.
